From patent US20230158151A1 (NURIX THERAPEUTICS, INC., priority 2021, published 2023)

Assay: Mouse PK Analysis (plasma LC/MS/MS, noncompartmental PK parameters)
Format: in vivo
Parameters: AUC(0-t): concentration or dose not given beside the values
Conditions: mouse; mice, oral administration, plasma
Description: Compounds 30 and 29 were administered to mice orally. After 6 hours or 24 hours, splenocytes cells were harvested. ITK was evaluated by Western blotting. Plasma concentrations were determined by LC/MS/MS. Plasma samples were protein precipitated by addition of 100 μl of acetonitrile containing 50 ng/ml of internal standard. The resulting mixture was vortexed and centrifuged at 4000 RPM for 5 minutes. An aliquot of the resultant supernatant (75 μl) was added to 75 μl of 0.1% formic acid in water to constitute the final sample for injection. Samples were injected on a Shimadzu Exion LC Binary Gradient AD Pump HLPC system connected to a Sciex QTRAP 6500+ mass spectrometer. Five μl of sample was injected onto a Waters Acquity UPLC BEH C18 column 130A (2.1×30 mm, […]) at 40° C. utilizing a flow rate of 700 μl/minute. Mobile Phase A was 0.1% formic acid in water and mobile phase B was 0.1% formic acid in acetonitrile. A linear gradient of 15-95% B over 1.0 minute was used. The mass spectrometer was operated in positive ion electrospray mode with multiple reaction monitoring for maximum sensitivity. Sciex Analyst software (version 1.6.3) was used for LC/MS/MS instrument control and acquisition. Compound concentration was determined against a standard curve of internal standard versus compound peak area ratio. Noncompartmental PK parameters were determined using Phoenix 32 software (version 8.2.0.4383) from Certara. Plasma concentrations from the LC/MS/MS analyses, dose, route of administration, and desired units were utilized for PK parameter calculations. […] FIG. 3C provides the concentration over time of compound 30 following in vivo oral administration in the 6 hour and 24 hour assays.
Cmax, Tmax and AUClast were all calculated using a WinNonLin Phoenix 64 v 8.2.0.4383. Using non-compartmental analysis, Tmax, Cmax and AUClast were determined as follows:
Tmax—Time of maximum observed concentration. Cmax—Maximum observed concentration, occurring at time Tmax, as defined above. AUClast—Area under the curve from the time of dosing to the time of the last measurable (positive) concentration (Tlast).

Structure (SMILES)	AUC(0-t) [µM·h]	Cmax [nM]	Tmax [h]
C[C@@H](C(=O)N(C)c1ccc2cc(-c3n[nH]c4c3C[C@@H]3C(F)(F)[C@]3(C)C4)[nH]c2c1)N1CCN(CC2CCN(c3ccc(N4CCC(=O)NC4=O)cn3)CC2)CC1 [Compound 29, (S)—N-(2-((4aS,5aR)-5,5-difluoro-5a-methyl-1,4,4a,5,5a,6-hexahydrocyclopropa[f]indazol-3-yl)-1H-indol-6-yl)-2-(4-((1-(5-(2,4-dioxotetrahydropyrimidin-1(2H)-yl)pyridin-2-yl)piperidin-4-yl)methyl)piperazin-1-yl)-N-methylpropanamide]	1.98	694	3.3
C[C@@H](C(=O)N(C)c1ccc2cc(-c3n[nH]c4c3CCC(C)(C)C4)[nH]c2c1)N1CCN(CC2CCN(c3ccc(C4CCC(=O)NC4=O)cn3)CC2)CC1 (stereo partly drawn) [Compound 32, (2S)—N-(2-(6,6-dimethyl-4,5,6,7-tetrahydro-1H-indazol-3-yl)-1H-indol-6-yl)-2-(4-((1-(5-(2,6-dioxopiperidin-3-yl)pyridin-2-yl)piperidin-4-yl)methyl)piperazin-1-yl)-N-methylpropanamide]	22.7	1620	6
CC1(C)CCc2c(-c3cc4ccc(C(=O)N5CCN(CC6CCN(c7ccc(C8CCC(=O)NC8=O)cc7)CC6)CC5)cc4[nH]3)n[nH]c2C1 (stereo not drawn) [Compound 38, 3-(4-(4-((4-(2-(6,6-dimethyl-4,5,6,7-tetrahydro-1H-indazol-3-yl)-1H-indole-6-carbonyl)piperazin-1-yl)methyl)piperidin-1-yl)phenyl)piperidine-2,6-dione]	150	11000	3.3
CC1(C)CCc2c(-c3cc4ccc(C(=O)N5CCC(CN6CCN(c7ccc(C8CCC(=O)NC8=O)nc7)CC6)CC5)cc4[nH]3)n[nH]c2C1 (stereo not drawn) [Compound 35, 3-(5-(4-((1-(2-(6,6-dimethyl-4,5,6,7-tetrahydro-1H-indazol-3-yl)-1H-indole-6-carbonyl)piperidin-4-yl)methyl)piperazin-1-yl)pyridin-2-yl)piperidine-2,6-dione]	12	2000	2
CN(C(=O)CCC1CCN(c2ccc(C3CCC(=O)NC3=O)cn2)CC1)c1ccc2cc(-c3n[nH]c4c3C[C@@H]3C(F)(F)[C@]3(C)C4)[nH]c2c1 (stereo partly drawn) [Compound 4, N-(2-((4aS,5aR)-5,5-difluoro-5a-methyl-1,4,4a,5,5a,6-hexahydrocyclopropa[f]indazol-3-yl)-1H-indol-6-yl)-3-(1-(5-(2,6-dioxopiperidin-3-yl)pyridin-2-yl)piperidin-4-yl)-N-methylpropanamide]	7.07	2430	1
CC1(C)CCc2c(-c3cc4ccc(N5CCC6(CCN(CC7CCN(c8ccc(C9CCC(=O)NC9=O)cn8)CC7)CC6)C5=O)cc4[nH]3)n[nH]c2C1 (stereo not drawn) [Compound 24, 3-(6-(4-((2-(2-(6,6-dimethyl-4,5,6,7-tetrahydro-1H-indazol-3-yl)-1H-indol-6-yl)-1-oxo-2,8-diazaspiro[4.5]decan-8-yl)methyl)piperidin-1-yl)pyridin-3-yl)piperidine-2,6-dione]	1.43	610	6
CC1(C)CCc2c(-c3cc4ccc(C(=O)N5CCC(CN6CCC(c7ccc(C8CCC(=O)NC8=O)cc7)CC6)CC5)cc4[nH]3)n[nH]c2C1 (stereo not drawn) [Compound 39, 3-(4-(1-((1-(2-(6,6-dimethyl-4,5,6,7-tetrahydro-1H-indazol-3-yl)-1H-indole-6-carbonyl)piperidin-4-yl)methyl)piperidin-4-yl)phenyl)piperidine-2,6-dione]	3.9	300	6
C[C@@]12Cc3[nH]nc(-c4cc5ccc(N6CCC7(CCN(CC8CCN(c9ccc(C%10CCC(=O)NC%10=O)cn9)CC8)CC7)C6=O)cc5[nH]4)c3C[C@@H]1C2(F)F (stereo partly drawn) [Compound 28, 3-(6-(4-((2-(2-((4aS,5aR)-5,5-difluoro-5a-methyl-1,4,4a,5,5a,6-hexahydrocyclopropa[f]indazol-3-yl)-1H-indol-6-yl)-1-oxo-2,8-diazaspiro[4.5]decan-8-yl)methyl)piperidin-1-yl)pyridin-3-yl)piperidine-2,6-dione]	1.56	379	6
CC1(C)CCc2c(-c3cc4ccc(C(=O)N5CCN(CC6CCN(c7ccc(C8CCC(=O)NC8=O)cn7)CC6)CC5)cc4[nH]3)n[nH]c2C1 (stereo not drawn) [Compound 26, 3-(6-(4-((4-(2-(6,6-dimethyl-4,5,6,7-tetrahydro-1H-indazol-3-yl)-1H-indole-6-carbonyl)piperazin-1-yl)methyl)piperidin-1-yl)pyridin-3-yl)piperidine-2,6-dione]	36.5	7110	6
C[C@@H](C(=O)N(C)c1ccc2cc(-c3n[nH]c4c3CCC(C)(C)C4)[nH]c2c1)N1CCN(CC2CCN(c3ccc(N4CCC(=O)NC4=O)cn3)CC2)CC1 [Compound 31, (S)—N-(2-(6,6-dimethyl-4,5,6,7-tetrahydro-1H-indazol-3-yl)-1H-indol-6-yl)-2-(4-((1-(5-(2,4-dioxotetrahydropyrimidin-1(2H)-yl)pyridin-2-yl)piperidin-4-yl)methyl)piperazin-1-yl)-N-methylpropanamide]	16.5	3080	2
CC1(C)CCc2c(-c3cc4ccc(C(=O)N5CCC(CN6CCN(c7ccc(C8CCC(=O)NC8=O)cc7)CC6)CC5)cc4[nH]3)n[nH]c2C1 (stereo not drawn) [Compound 37, 3-(4-(4-((1-(2-(6,6-dimethyl-4,5,6,7-tetrahydro-1H-indazol-3-yl)-1H-indole-6-carbonyl)piperidin-4-yl)methyl)piperazin-1-yl)phenyl)piperidine-2,6-dione]	72	5400	2
